Measured values reported in patent EP0435794A1, “Alkenyl- or heteroaryl thio, sulfone, sulfoxy herbicides” (RHONE-POULENC AGROCHIMIE, priority 1989, dated 1991).

Key:
Format in all cases: in vivo
Alopecurus myosuroïdes = assay: Exemple A: herbicide application, pre-emergence; conditions: notation 0 à 5 after 24 days
Source text: (§1) Exemple A - Application herbicide, en prélevée des espèces végétales
(§2) Dans des pots de 7 x 7 x 8 cm remplis de terre agricole légère, on sème un nombre de graines déterminé en fonction de l'espèce végétale et de la grosseur de la graine.
(§3) Les pots sont traités par pulvérisation de bouillie en quantité correspondant à une dose volumique d'application de 500 l/ha et contenant la matière active à la concentration désirée.
(§4) Le traitement avec la bouillie est donc effectué sur des graines non recouvertes de terre (on utilise le terme de bouillie pour désigner, en général, les compositions diluées à l'eau, telles qu'on les applique sur les végétaux).
(§5) La bouillie utilisée pour le traitement est une solution ou suspension de la matière active dans un mélange acétone/eau en proportions 50/50, en présence de 0,05 % en poids de cemulsol NP 10 (agent tensio-actif) constitué d'alkylphénol polyéthoxylé, notamment de nonylphénol polyéthoxylé) et 0,04 % en poids de tween 20 (agent tensio-actif constitué d'un oléate de dérivé polyoxyéthyléné du sorbitol).
(§6) Dans le cas d'une suspension, celle-ci est obtenue en mélangeant et broyant les ingrédients dans un microniseur de façon à obtenir une grosseur moyenne de particules inférieure à 40 microns.
(§7) Après traitement, on recouvre les graines d'une couche de terre d'environ 3 mm d'épaisseur.
(§8) Les pots sont alors placés dans des bacs destinés à recevoir l'eau d'arrosage, en subirrigation, et maintenus pendant 24 jours à température ambiante sous 70 % d'humidité relative.
(§9) Le relevé est effectué de la façon suivante:
(§10) Au bout de 24 jours, on mesure un pourcentage (D) des destructions du nombre de pieds dans le pot traité par rapport au nombre de plantes dans les pots non traités (témoin). On mesure, sur les plantes traitées restantes, le pourcentage de réduction de taille (RT) par rapport aux plantes témoin.
(§11) Le pourcentage du volume foliaire non détruit par le produit est donc donné par la formule: ([100-D] x [100-RT])/(100)= A [formula]
(§12) Cette valeur A est transformée en notation de 0 à 5 selon l'échelle suivante:
(§13) Les résultats obtenus sont présentés après l'exemple B pour des doses d'application de 4000 g/ha à 1000 g/ha.
(§14) Les espèces végétales utilisées dans ces exemples A et B sont: […]

Avena fatua = assay: Exemple A: herbicide application, pre-emergence; conditions: notation 0 à 5 after 24 days
Source text: as §1, §2, §3, §4, §5, §6, §7, §8, §9, §10, §11, §12, §13, §14

Cyperus esculentus = assay: Exemple A: herbicide application, pre-emergence; conditions: notation 0 à 5 after 24 days
Source text: as §1, §2, §3, §4, §5, §6, §7, §8, §9, §10, §11, §12, §13, §14

Digitaria sanguinalis [1] = assay: Exemple A: herbicide application, pre-emergence; conditions: notation 0 à 5 after 24 days
Source text: as §1, §2, §3, §4, §5, §6, §7, §8, §9, §10, §11, §12, §13, §14

Echinochloa crus galli = assay: Exemple A: herbicide application, pre-emergence; conditions: notation 0 à 5 after 24 days
Source text: as §1, §2, §3, §4, §5, §6, §7, §8, §9, §10, §11, §12, §13, §14

Alopecurus myosuroides = assay: Exemple C: selectivity test in field crops, pre-emergence (weed); conditions: 24 days
Source text: (§15) Exemple C - Essai de sélectivité en grandes cultures avec application herbicide, en prélevée des espèces végétales
(§16) Dans des pots de 7 X 7 X 8 cm remplis de terre agricole légère, on sème un nombre de graines déterminé en fonction de l'espèce végétale et de la grosseur de la graine.
(§17) On recouvre ensuite les graines d'une couche de terre d'environ 3 mm d'épaisseur.
(§18) Les pots sont alors traités par pulvérisation de bouillie en quantité correspondant à une dose volumique d'application de 500 l/ha et contenant la matière active à la concentration désirée.
(§19) La bouillie a été préparée de la même manière qu'à l'exemple A.
(§20) Les pots traités sont ensuite placés dans des bacs destinés à recevoir l'eau d'arrosage, en subirrigation, et maintenus pendant 24 jours à température ambiante sous 70 % d'humidité relative.
as §9
(§21) Au bout de 24 jours, on mesure un pourcentage (D) de destruction du nombre de pieds dans le pot traité par rapport au nombre de plantes dans les pots non traités (témoin). On mesure, sur les plantes traitées restantes, le pourcentage de réduction de taille (RT) par rapport aux plantes témoins.
(§22) Le pourcentage de volume foliaire non détruit par le produit est donc donné par la formule: ([100-D] X [100-RT])/(100)= A [formula]
as §12
(§23) Ainsi, un produit est jugé comme sélectif vis à vis de la culture lorsque la valeur A notée est de 0 ou 1.
(§24) Les résultats obtenus sont présentés dans l'exemple C pour des doses d'application de 500, 1000, 2000 ou 4000 g de matière active par hectare selon les produits.
(§25) Les espèces végétales utilisées dans cet exemple sont: […]

Digitaria sanguinalis [2] = assay: as above; conditions: 24 days
Source text: as §15, §16, §17, §18, §19, §20, §9, §21, §22, §12, §23, §24, §25

Echinochloa crus-galli = assay: as above; conditions: 24 days
Source text: as §15, §16, §17, §18, §19, §20, §9, §21, §22, §12, §23, §24, §25

Panicum milicaeum = assay: as above; conditions: 24 days
Source text: as §15, §16, §17, §18, §19, §20, §9, §21, §22, §12, §23, §24, §25

Setaria faberii = assay: as above; conditions: 24 days
Source text: as §15, §16, §17, §18, §19, §20, §9, §21, §22, §12, §23, §24, §25

Sorghum halepense = assay: as above; conditions: 24 days
Source text: as §15, §16, §17, §18, §19, §20, §9, §21, §22, §12, §23, §24, §25

blé = assay: Exemple C: selectivity test in field crops, pre-emergence (crop); conditions: 24 days, 0 or 1 = selective; note: ranges in brackets are in %
Source text: as §15, §16, §17, §18, §19, §20, §9, §21, §22, §12, §23, §24
(§26) Les espèces végétales utilisées dans cet exemple sont:
(§27) Comme on peut le voir sur le tableau de résultats de cet exemple C, de nombreux produits présentent une excellente activité antigraminée de prélevée tout en montrant une excellente sélectivité pour 1 ou 2 ou 3 ou 4 des 4 cultures testées = blé, maïs, riz, soja.

maïs = assay: as above; conditions: 24 days, 0 or 1 = selective; note: ranges in brackets are in %
Source text: as §15, §16, §17, §18, §19, §20, §9, §21, §22, §12, §23, §24, §26, §27

riz = assay: as above; conditions: 24 days, 0 or 1 = selective; note: ranges in brackets are in %
Source text: as §15, §16, §17, §18, §19, §20, §9, §21, §22, §12, §23, §24, §26, §27

soja = assay: as above; conditions: 24 days, 0 or 1 = selective; note: ranges in brackets are in %
Source text: as §15, §16, §17, §18, §19, §20, §9, §21, §22, §12, §23, §24, §26, §27

C=C(CS(=O)(=O)c1sccc1Br)c1cccc(F)c1 [compound 9, 1-[(3-bromo 2-thiényl)sulfonyl] 2-(3-fluorophényl)2-propène]
ACTIVITE HERBICIDE DE PRELEVEE ALO (Alopecurus myosuroïdes; dose 4 Kg m.a./ha): 5 (O à 10)
ACTIVITE HERBICIDE DE PRELEVEE AVE (Avena fatua; dose 4 Kg m.a./ha): 5 (O à 10)
ACTIVITE HERBICIDE DE PRELEVEE CYP (Cyperus esculentus; dose 4 Kg m.a./ha): 4 (10 à 30)
ACTIVITE HERBICIDE DE PRELEVEE DIG (Digitaria sanguinalis [1]; dose 4 Kg m.a./ha): 5 (O à 10)
ACTIVITE HERBICIDE DE PRELEVEE ECH (Echinochloa crus galli; dose 4 Kg m.a./ha): 5 (O à 10)

C=C(CS(=O)(=O)c1cccs1)c1cccc(Cl)n1 [compound 4, 2-(6-chloro 2-pyridyl) 1-(2-thiénylsulfonyl) 2-propène]
ACTIVITE HERBICIDE DE PRELEVEE ALO (Alopecurus myosuroïdes; dose 4 Kg m.a./ha): 5 (O à 10)
ACTIVITE HERBICIDE DE PRELEVEE AVE (Avena fatua; dose 4 Kg m.a./ha): 3 (30 à 50)
ACTIVITE HERBICIDE DE PRELEVEE CYP (Cyperus esculentus; dose 4 Kg m.a./ha): 5 (O à 10)
ACTIVITE HERBICIDE DE PRELEVEE DIG (Digitaria sanguinalis [1]; dose 4 Kg m.a./ha): 5 (O à 10)
ACTIVITE HERBICIDE DE PRELEVEE ECH (Echinochloa crus galli; dose 4 Kg m.a./ha): 5 (O à 10)

C=C(CS(=O)(=O)c1cccs1)c1cccc(F)c1 [compound 3, 2-(3-fluorophényl) 1-(2-thiénylsulfonyl) 2-propène]
ACTIVITE HERBICIDE DE PRELEVEE ALO (Alopecurus myosuroïdes; dose 1 Kg m.a./ha): 5 (O à 10)
ACTIVITE HERBICIDE DE PRELEVEE AVE (Avena fatua; dose 1 Kg m.a./ha): 1 (70 à 90)
ACTIVITE HERBICIDE DE PRELEVEE CYP (Cyperus esculentus; dose 1 Kg m.a./ha): 5 (O à 10)
ACTIVITE HERBICIDE DE PRELEVEE DIG (Digitaria sanguinalis [1]; dose 1 Kg m.a./ha): 5 (O à 10)
ACTIVITE HERBICIDE DE PRELEVEE ECH (Echinochloa crus galli; dose 1 Kg m.a./ha): 5 (O à 10)

C=C(CS(=O)(=O)c1cccs1)c1cc(F)cc(F)c1 [compound 7, 2-(3,5-difluorophényl) 1-(2-thiénylsulfonyl) 2-propène]
ACTIVITE HERBICIDE DE PRELEVEE ALO (Alopecurus myosuroïdes; dose 1 Kg m.a./ha): 5 (O à 10)
ACTIVITE HERBICIDE DE PRELEVEE AVE (Avena fatua; dose 1 Kg m.a./ha): 1 (70 à 90)
ACTIVITE HERBICIDE DE PRELEVEE CYP (Cyperus esculentus; dose 1 Kg m.a./ha): 1 (70 à 90)
ACTIVITE HERBICIDE DE PRELEVEE DIG (Digitaria sanguinalis [1]; dose 1 Kg m.a./ha): 5 (O à 10)
ACTIVITE HERBICIDE DE PRELEVEE ECH (Echinochloa crus galli; dose 1 Kg m.a./ha): 5 (O à 10)

O=S(=O)(CC(O)(CBr)c1cccc(Cl)c1)c1ccsc1 (centres unmarked) [compound 64]
Notation de l'activité herbicide ALO (Alopecurus myosuroides; dose 1 Kg m.a./ha): 3 (30 à 50)
Notation de l'activité herbicide DIG (Digitaria sanguinalis [2]; dose 1 Kg m.a./ha): 5 (O à 10)
Notation de l'activité herbicide ECh (Echinochloa crus-galli; dose 1 Kg m.a./ha): 5 (O à 10)
Notation de l'activité herbicide PAN (Panicum milicaeum; dose 1 Kg m.a./ha): 5 (O à 10)
Notation de l'activité herbicide SET (Setaria faberii; dose 1 Kg m.a./ha): 5 (O à 10)
Notation de l'activité herbicide SOR (Sorghum halepense; dose 1 Kg m.a./ha): 2 (50 à 70)
Notation de l'activité herbicide TRZ (blé; dose 1 Kg m.a./ha): 0 (90 à 100)
Notation de l'activité herbicide ZEA (maïs; dose 1 Kg m.a./ha): 2 (50 à 70)
Notation de l'activité herbicide ORY (riz; dose 1 Kg m.a./ha): 2 (50 à 70)
Notation de l'activité herbicide GLY (soja; dose 1 Kg m.a./ha): 0 (90 à 100)

C=C(CS(=O)(=O)C=C(C)C)c1ccccc1 [compound 73]
Notation de l'activité herbicide ALO (Alopecurus myosuroides; dose 2 Kg m.a./ha): 4 (10 à 30)
Notation de l'activité herbicide DIG (Digitaria sanguinalis [2]; dose 2 Kg m.a./ha): 3 (30 à 50)
Notation de l'activité herbicide ECh (Echinochloa crus-galli; dose 2 Kg m.a./ha): 5 (O à 10)
Notation de l'activité herbicide PAN (Panicum milicaeum; dose 2 Kg m.a./ha): 3 (30 à 50)
Notation de l'activité herbicide SET (Setaria faberii; dose 2 Kg m.a./ha): 0 (90 à 100)
Notation de l'activité herbicide SOR (Sorghum halepense; dose 2 Kg m.a./ha): 3 (30 à 50)
Notation de l'activité herbicide TRZ (blé; dose 2 Kg m.a./ha): 1 (70 à 90)
Notation de l'activité herbicide ZEA (maïs; dose 2 Kg m.a./ha): 2 (50 à 70)
Notation de l'activité herbicide ORY (riz; dose 2 Kg m.a./ha): 0 (90 à 100)
Notation de l'activité herbicide GLY (soja; dose 2 Kg m.a./ha): 0 (90 à 100)

O=S(=O)(CC(O)(CBr)c1cccc(F)c1)c1cccs1 (centres unmarked) [compound 53, 1-bromo 2-(3-fluorophényl) 3-(2-thiénylsulfonyl) 2-propanol]
Notation de l'activité herbicide ALO (Alopecurus myosuroides; dose 0.5 Kg m.a./ha): 2 (50 à 70)
Notation de l'activité herbicide DIG (Digitaria sanguinalis [2]; dose 0.5 Kg m.a./ha): 4 (10 à 30)
Notation de l'activité herbicide ECh (Echinochloa crus-galli; dose 0.5 Kg m.a./ha): 4 (10 à 30)
Notation de l'activité herbicide PAN (Panicum milicaeum; dose 0.5 Kg m.a./ha): 1 (70 à 90)
Notation de l'activité herbicide SET (Setaria faberii; dose 0.5 Kg m.a./ha): 1 (70 à 90)
Notation de l'activité herbicide SOR (Sorghum halepense; dose 0.5 Kg m.a./ha): 4 (10 à 30)
Notation de l'activité herbicide TRZ (blé; dose 0.5 Kg m.a./ha): 0 (90 à 100)
Notation de l'activité herbicide ZEA (maïs; dose 0.5 Kg m.a./ha): 2 (50 à 70)
Notation de l'activité herbicide ORY (riz; dose 0.5 Kg m.a./ha): 3 (30 à 50)
Notation de l'activité herbicide GLY (soja; dose 0.5 Kg m.a./ha): 0 (90 à 100)
